Where two headings read alike, the source gives them in different places.
What was measured:
Assay type in all cases: cell-based
[1] = molecular target: T1, Kv1.1/Kv1.1-L155P channels (Homo sapiens, UniProt Q09470, L155P); experiment: TEVC of oocytes co-injected with 50/50 wild-type/L155P Kv1.1 cRNA
T1 construct: expressed in transfected cells; host or cells: Xenopus laevis oocytes co-injected with 50/50 wild-type/L155P cRNA
Description: As previously described[24], we generated cRNA transcripts encoding human Kv1.1 (wild-type and mutant) and Kv1.2, by in vitro transcription using the mMessage mMachine kit (Thermo Fisher Scientific), after vector linearization, from cDNA sub-cloned into plasmids (pTLNx) incorporating Xenopus laevis β-globin 5’ and 3’ UTRs flanking the coding region to enhance translation and cRNA stability. We injected defolliculated stage V and VI Xenopus laevis oocytes (Xenoocyte, Dexter, MI, US) with Kv1 cRNAs (1–5 ng). We incubated the oocytes at 16 °C in ND96 oocyte storage solution containing penicillin and streptomycin, with daily washing, for 2 days prior to two-electrode voltage-clamp (TEVC) recording.

[2] = molecular target: T2, wild-type human Kv1.1 (Homo sapiens, UniProt Q09470); experiment: Two-electrode voltage clamp of oocytes expressing wild-type Kv1.1; conditions: for shift of midpoint voltage-dependence of activation (V0.5 act): 100 µM; for effect on Kv1.1 activity: compound 100 µM; for EM (unclamped oocyte membrane potential) / Slope / V0.5 Normalized tail current: in presence of 100 µM compound
T2 construct: expressed in transfected cells; host or cells: Xenopus laevis oocytes injected with cRNA (pTLNx vector)
T2 sequence (Q09470 whole entry): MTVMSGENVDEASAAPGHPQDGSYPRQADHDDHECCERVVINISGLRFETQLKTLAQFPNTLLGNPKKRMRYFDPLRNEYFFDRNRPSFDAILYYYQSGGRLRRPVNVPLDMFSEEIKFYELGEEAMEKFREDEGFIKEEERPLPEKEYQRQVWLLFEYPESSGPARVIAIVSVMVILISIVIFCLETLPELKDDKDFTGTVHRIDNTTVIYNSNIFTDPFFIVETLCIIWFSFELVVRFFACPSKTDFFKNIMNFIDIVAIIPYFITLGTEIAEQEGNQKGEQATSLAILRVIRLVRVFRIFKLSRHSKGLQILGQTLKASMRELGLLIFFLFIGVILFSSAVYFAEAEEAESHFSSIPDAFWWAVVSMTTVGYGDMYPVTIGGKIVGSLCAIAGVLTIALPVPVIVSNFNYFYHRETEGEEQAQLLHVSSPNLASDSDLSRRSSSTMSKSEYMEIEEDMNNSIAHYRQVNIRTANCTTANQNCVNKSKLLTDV
Description: (§1) Wild-type and mutant Kv1 cDNAs were generated (Genscript, Piscataway, NJ) in the pTLNx expression vector. As previously described, we generated cRNA transcripts encoding human Kv1.1 (wild-type and mutant) and Kv1.2, by in vitro transcription using the mMessage mMachine kit (Thermo Fisher Scientific), after vector linearization, from cDNA sub-cloned into plasmids (pTLNx) incorporating Xenopus laevis β-globin 5’ and 3’ UTRs flanking the coding region to enhance translation and cRNA stability. We injected defolliculated stage V and VI Xenopus laevis oocytes (Xenoocyte, Dexter, MI, US) with Kv1 cRNAs (1–5 ng). We incubated the oocytes at 16 °C in ND96 oocyte storage solution containing penicillin and streptomycin, with daily washing, for 2 days prior to two-electrode voltage-clamp (TEVC) recording.
(§2) We performed TEVC at room temperature using an OC-725C amplifier (Warner Instruments, Hamden, CT) and pClamp10 software (Molecular Devices, Sunnyvale, CA) 2 days after cRNA injection as described in the section above. For recording, oocytes we placed in a small-volume oocyte bath (Warner) and viewed with a dissection microscope. We sourced chemicals from Sigma. We studied effects of plant extracts and of compounds, solubilized directly in bath solution (in mM): 96 NaCl, 4 KCl, 1 MgCl2, 1 CaCl2, 10 HEPES (pH 7.6). We introduced extracts or compounds into the oocyte recording bath by gravity perfusion at a constant flow of 1 ml per minute for 3 min prior to recording. Pipettes were of 1–2 MΩ resistance when filled with 3 M KCl. We recorded currents in response to voltage pulses between −80 mV and +40 mV at 10 or 20 mV intervals from a holding potential of −80 mV, to yield current-voltage relationships and examine activation kinetics. To calculate the voltage dependence of activation (V0.5), tail currents were recorded at a voltage pulse of −50 mV immediately following prepulse voltages between −80 mV and +40 mV. We analyzed data using Clampfit (Molecular Devices) and Graphpad Prism software (GraphPad, San Diego, CA, USA), stating values as mean ± SEM. We plotted raw or normalized tail currents vs. prepulse voltage and fitted with a single Boltzmann function:1 g=(A1−A2)/1+exp[V1/2−V/Vs]y+A2 where g is the normalized tail conductance, A1 is the initial value at -∞, A2 is the final value at +∞, V1/2 is the half-maximal voltage of activation and Vs the slope factor.

[3] = molecular target: T3, Kv1.1/Kv1.1-E283K channels (Homo sapiens, UniProt Q09470, E283K); experiment: TEVC of oocytes co-injected with 50/50 wild-type/E283K Kv1.1 cRNA
T3 construct: expressed in transfected cells; host or cells: Xenopus laevis oocytes co-injected with 50/50 wild-type/mutant cRNA
T3 sequence (Q09470 whole entry, stated change not applied): as the sequence (Q09470 whole entry) above
T3 sequence (Q09470 whole entry E283K): as the sequence (Q09470 whole entry) above, with E283K counted along it
Procedure: We next tested effects on channels generated by co-injection of 50/50 wild-type/mutant Kv1.1 cRNA. Strikingly, gallic acid (1 µM) was able to hyperpolarize (by −15.5 ± 0.5 mV; n = 4; P < 0.0001) the V0.5 act of Kv1.1/Kv1.1-E283K channels, restoring voltage dependence typical of wild-type Kv1.1 (Fig. 7a–c), also inducing a −14 ± 0.7 mV hyperpolarization (n = 4; P = 0.0005) in EM of oocytes expressing Kv1.1/Kv1.1-E283K (Fig. 7d). […] Because of this hint at activity improvement in L155P channels we also applied higher concentrations (10 and 100 µM) of gallic acid, which produced a more robust (−12.5 ± 0.6 mV and −14.1 ± 0.6 mV, respectively) hyperpolarization of Kv1.1/Kv1.1-L155P V0.5 act (Fig. 8b, c) and hyperpolarized EM by −14.0 ± 0.6 mV and −15.2 ± 0.7 mV, respectively (Fig. 8d).
as §1, §2

[4] = molecular target: T4, Kv1.1-G311D channels (Homo sapiens, UniProt Q09470, G311D); experiment: TEVC of oocytes expressing 100% Kv1.1-G311D; conditions: compound 1 µM
T4 construct: expressed in transfected cells; host or cells: Xenopus laevis oocytes
T4 sequence (Q09470 whole entry G311D): as the sequence (Q09470 whole entry) above, with G311D counted along it
Description: EA1 mutant G311D is in the S4-5 linker of Kv1.1 (Fig. 5a) and produces a 65% prepulse current reduction both in Kv1.1-G311D and in Kv1.1/Kv1.1-G311D channels[43],[44]; either channel type was minimally responsive to the plant extracts tested (Supplementary Figs. 3 and 4). EA1 mutant L328V (which is associated with tetany and hypomagnesemia) is located in the intracellular end of Kv1.1 S5 (Fig. 5a) and results in complete current loss in a dominant negative manner, i.e., Kv1.1-L328V and Kv1.1/Kv1.1-L328V channels are each nonfunctional. The traditional ataxia remedy plant extracts were unable to rescue Kv1.1-L328V or Kv1.1/Kv1.1-L328V function (Supplementary Figs. 5 and 6). EA1 mutant V408A is in the intracellular-proximal end of Kv1.1 S6 (Fig. 5a) and reduces current, speeds deactivation, and increases C-type inactivation of Kv1.1[46]. Here, Native American ataxia remedy extracts had relatively minor effects on Kv1.1-V408A activity, with nettle and Pacific ninebark (roots or leaves) inducing hyperpolarizing shifts in EM, and Pacific ninebark leaves inducing a negative shift in the voltage dependence of activation, although this was not quantifiable due to the very small tail currents (Supplementary Fig. 7). Effects of the extracts on Kv1.1/Kv1.1-V408A activity were also relatively minor (Supplementary Fig. 8). […]

T1 sequence (Q09470 whole entry, stated change not applied): as the sequence (Q09470 whole entry) above
T1 sequence (Q09470 whole entry L155P): as the sequence (Q09470 whole entry) above, with L155P counted along it

Question: For `O=C(O)c1cc(O)c(O)c(O)c1` [gallic acid], which “hyperpolarization of EM” value ([1]; 1 µM) is on record?
Answer: –9.1 ± 0.8 mV

Question: And the “shift in the voltage dependence of activation (V0.5 act)” value (“shift in the voltage dependence” for short) ([1]; 1 µM)?
Answer: −6.8 ± 0.6 mV

Question: What about the “hyperpolarization of EM” value ([1]; 10 µM) of the same compound?
Answer: −14.0 ± 0.6 mV

Question: What about the “shift in the voltage dependence” value ([1]; 10 µM) of the same compound?
Answer: −12.5 ± 0.6 mV

Question: What about the “hyperpolarization of EM” value ([1]; 100 µM) of the same compound?
Answer: −15.2 ± 0.7 mV

Question: And the “shift in the voltage dependence” value ([1]; 100 µM)?
Answer: −14.1 ± 0.6 mV

Question: And the EM ([1]; in presence of 1 µM compound)?
Answer: -45.00 ± 0.78 mV

Question: And the Slope ([1]; in presence of 1 µM compound)?
Answer: 4.84 ± 0.56 mV

Question: And the “V0.5 Normalized tail current” value ([1]; in presence of 1 µM compound)?
Answer: -30.59 ± 0.60 mV

Question: And the EM ([1]; in presence of 10 µM compound)?
Answer: -48.89 ± 0.66 mV

Question: And the Slope ([1]; in presence of 10 µM compound)?
Answer: 4.76 ± 0.51 mV

Question: And the “V0.5 Normalized tail current” value ([1]; in presence of 10 µM compound)?
Answer: -36.38 ± 0.62 mV

Question: What about the EM ([1]; in presence of 100 µM compound) of the same compound?
Answer: -50.11 ± 0.69 mV

Question: And the Slope ([1]; in presence of 100 µM compound)?
Answer: 4.68 ± 0.55 mV

Question: What about the “V0.5 Normalized tail current” value ([1]; in presence of 100 µM compound) of the same compound?
Answer: -37.93 ± 0.62 mV

Question: What about the “shift of midpoint voltage-dependence of activation (V0.5 act)” value [2] of the same compound?
Answer: −21.0 ± 2.5 mV

Question: What about the EC50 ([2]; EC50 for hyperpolarization of EM, oocytes expressing wild-type Kv1.1) of the same compound?
Answer: 0.018 ± 0.006 µM

Question: What about the EC50 ([2]; EC50 for peak current augmentation, at −40 mV, Fig. 10) of the same compound?
Answer: 0.379 ± 0.028 µM

Question: What about the EC50 ([2]; EC50 for ΔV0.5activation, dose response, Fig. 4) of the same compound?
Answer: 0.054 ± 0.01 µM

Question: And the “lowest concentration that begins to hyperpolarize the resting membrane potential” value ([2]; Kv1.1-expressing oocytes)?
Answer: 100 nM

Question: What about the “effect on Kv1.1 activity” value [2] of the same compound?
Answer: highly efficacious Kv1.1 channel openers

Question: And the “maximal shift in V0.5activation” value ([2]; dose response, Fig. 4a)?
Answer: −20 mV

Question: What about the “EM (unclamped oocyte membrane potential)” value [2] of the same compound?
Answer: -49.60 ± 0.91 mV

Question: And the Slope [2]?
Answer: 12.10 ± 2.32 mV

Question: And the “V0.5 Normalized tail current” value [2]?
Answer: -37.17 ± 2.59 mV

Question: What about the “hyperpolarization in EM” value ([3]; 1 µM) of the same compound?
Answer: −14 ± 0.7 mV

Question: What about the “hyperpolarizing shift of V0.5 act” value ([3]; 1 µM) of the same compound?
Answer: −15.5 ± 0.5 mV

Question: What about the EM ([3]; in presence of 1 µM compound) of the same compound?
Answer: -47.80 ± 0.65 mV

Question: What about the Slope ([3]; in presence of 1 µM compound) of the same compound?
Answer: 5.70 ± 1.12 mV

Question: And the “V0.5 Normalized tail current” value ([3]; in presence of 1 µM compound)?
Answer: -27.50 ± 0.51 mV

Question: And the “effect on channel activity” value [4]?
Answer: ineffective at rescuing activity

Question: Which “effect on channel activity” value ([1]; compound 1 µM) does the source give for tannic acid here?
Answer: minimal

Question: What about the “shift of midpoint voltage-dependence of activation (V0.5 act)” value [2] of the same compound?
Answer: −25.6 ± 2.6 mV

Question: And the “effect on Kv1.1 activity” value [2]?
Answer: highly efficacious Kv1.1 channel openers

Question: What about the EC50 ([2]; dose response, Fig. 4, read-out: EC50 for ΔV0.5activation) of the same compound?
Answer: 0.019 ± 0.0015 µM

Question: And the “EM (unclamped oocyte membrane potential)” value [2]?
Answer: -54.40 ± 1.23 mV

Question: And the Slope [2]?
Answer: 13.67 ± 2.01 mV

Question: What about the “V0.5 Normalized tail current” value [2] of the same compound?
Answer: -44.95 ± 2.49 mV

Question: What about the “hyperpolarizing shift of V0.5 act” value ([3]; 1 µM) of the same compound?
Answer: −12 mV

Question: What about the “effect on channel activity” value [4] of the same compound?
Answer: did not alter
